Reference: patent US4346087A, “Antibacterial surface active agent containing azaalkenelactam” (priority 1979, dated 1982)
Values after ≈ are worked out from the molar mass of the structure shown. Like-named read-outs stand apart in the source and are kept apart here.

Columns and labels:
Format in all cases: cell-based
Escherichia coli NIHJ = assay: MIC against Escherichia coli NIHJ
Excerpt: (§1) Below are described the antibacterial activities of the compounds in the compositions according to this invention.
(§2) The testing method complied with the standard method of Japan Sociaty of Chemotherapy.

[1] = system: Staphylococcus aureus FDA 209P; assay: MIC against Staphylococcus aureus FDA 209P
Excerpt: as §1, §2

[2] = system: Desulfovibrio desulfuricans IFO 13699; assay: MIC against Desulfovibrio desulfuricans
Excerpt: as §1, §2

[3] = Escherichia coli, Table 1, azaalkenelactams, heart infusion agar, 37° C., 24 hours, read-out: MIC
[4] = Desulfovibrio desulfuricans, IFO13699, 24 h
[5] = Escherichia coli, Table 2, derivatives having a carboxylate radical, heart infusion agar, 37° C., 24 hours, read-out: MIC
[6] = Staphylococcus aureus, FDA209P, 24 h
[7] = Table 2, derivatives having a carboxylate radical, heart infusion agar, 37° C., 24 hours

| Compound | MIC [2, 4] [mg/L] | MIC [1, 6] [mg/L] | MIC (Escherichia coli NIHJ; Escherichia coli, 24 h) [mg/L] | other results |
| --- | --- | --- | --- | --- |
| CCCCCCCCCCCCNC(=O)CCC [Laurylbutylamide, reference compound] | 400 (≈ 1570 µM) | – | – | MIC (Escherichia coli NIHJ; [3]): ≥ 10000 mg/L; MIC ([1]; Staphylococcus aureus, FDA209P, Table 1, azaalkenelactams, heart infusion agar, 37° C., 24 hours, read-out: MIC): ≥ 10000 mg/L |
| CCCCCCCCCCCCN1CCC[N+](CC(=O)[O-])=C(C)CC1=O [1-dodecyl-4-methyl-1-aza-5-azoniacyclooct-4-en-2-one-5-acetate] | 12.5 (≈ 34.1 µM) | 100 (≈ 273 µM) | – | MIC (Escherichia coli NIHJ; [5]): 3200 mg/L (≈ 8730 µM) |
| CCCCCCCCCCCCC(O)CNCCN1CC[N+](CC(=O)[O-])=C(C)CC1=O (stereo not drawn) [4-(2-hydroxytetradecyl)aminoethyl-7-methyl-1-azonia-4-azacyclohept-7-en-5-one-1-acetate] | 12.5 (≈ 28.4 µM) | 50 (≈ 114 µM) | 100 (≈ 227 µM) | – |
| CCCCCCCCCCCCCCC(O)CNCCN1CCC[N+](CC(=O)[O-])=CC(C)(C)C1=O (stereo not drawn) [1-(2-hydroxyhexadecyl)aminoethyl-3,3-dimethyl-1-aza-5-azoniacyclooct-4-en-2-one-5-acetate] | 12.5 (≈ 25.2 µM) | 12.5 (≈ 25.2 µM) | 100 (≈ 202 µM) | – |
| CCCCCCCCCCCCN1CCCN=C(C)CC1=O [Example 3, 1-dodecyl-4-methyl-3,6,7,8-tetrahydro-1,5-diazocin-2-one] | 6.25 (≈ 20.3 µM) | 50 (≈ 162 µM) | – | MIC (Escherichia coli NIHJ; [3]): 1600 mg/L (≈ 5190 µM) |
| CCCCCCCCCc1ccc(OCC(O)CNCCNCCNCCN2CC[N+](CC(=O)[O-])=CCC(C)C2=O)cc1 (stereo not drawn) [4-nonylphenoxy(2-hydroxy)propylaminoethylaminoethylaminoethyl-6-methyl-4-aza-1-azoniacyclooct-8-en-5-one-1-acetate] | 50 (≈ 82.8 µM) | 200 (≈ 331 µM) | 400 (≈ 662 µM) | – |
| CCCCCCCCOCCCN1CCN=CC(C)(C)C1=O [Example 63, 4-octoxypropyl-6,6-dimethyl-3-hydro-2H-1,4-diazepin-5-one] | 50 (≈ 161 µM) | 100 (≈ 322 µM) | 400 (≈ 1290 µM) | – |
| CCCCCCCCCCC(O)CN1CC[N+](CC(=O)[O-])=CC(C)C1=O (stereo not drawn) [4-(2-hydroxy)dodecyl-6-methyl-1-azonia-4-azacyclohept-7-en-5-one-1-acetate] | 25 (≈ 67.8 µM) | 25 (≈ 67.8 µM) | – | MIC (Escherichia coli NIHJ; [5]): 800 mg/L (≈ 2170 µM) |
| CCCCCCCCCCCCOCC(O)CN1CCCN=C(C)CC1=O (stereo not drawn) [Example 33, 1-docoxy(2-hydroxy)propyl-4-methyl-3,6,7,8-tetrahydro-1,5-diazocin-2-one] | 25 (≈ 65.3 µM) | 25 (≈ 65.3 µM) | 400 (≈ 1050 µM) | – |
| CCCCCCCCCCCCOCCNCCN1CCN=C(C)CC1=O [Example 6, 4-dodecoxyethylaminoethyl-7-methyl-3,6-dihydro-2H-1,4-diazepin-5-one] | 25 (≈ 65.5 µM) | 12.5 (≈ 32.8 µM) | 50 (≈ 131 µM) | – |
| CCCCCCCCCc1ccc(OCC(O)CNCCNCCNCCN2CC[N+](CC(=O)[O-])=C(C)CC2=O)cc1 (stereo not drawn) [4-nonylphenoxy(2-hydroxy)propylaminoethylaminoethylaminoethyl-7-methyl-1-azonia-4-azacyclohept-7-en-5-one-1-acetate] | 50 (≈ 84.8 µM) | 100 (≈ 170 µM) | – | MIC (Escherichia coli NIHJ; [5]): 800 mg/L (≈ 1360 µM) |
| CCCCCCCCCCCCNCCN1CC[N+](CC(=O)[O-])=C(C)CC1=O [4-dodecylaminoethyl-7-methyl-1-azonia-4-azacyclohept-7-en-5-one-1-acetate] | 12.5 (≈ 31.6 µM) | 50 (≈ 126 µM) | 100 (≈ 253 µM) | – |
| CCCCCCCCOCCCN1CC[N+](CC(=O)[O-])=C(C)CC1=O [4-octoxypropyl-7-methyl-1-azonia-4-azacyclohept-7-en-5-one-1-acetate] | 50 (≈ 141 µM) | 50 (≈ 141 µM) | – | MIC (Escherichia coli NIHJ; [5]): 1600 mg/L (≈ 4510 µM) |
| CCCCCCCCC=CCCCCCCCCN1CCN=CCCC1=O [Example 55, 4-(9-octadecenyl)-2,3,6,7-tetrahydro-1,4-diazocin-5-one] | 50 (≈ 133 µM) | 100 (≈ 266 µM) | 200 (≈ 531 µM) | – |
| CCCCCC[C@@H](O)C/C=C\CCCCCCCC(=O)NCCN1CCN=CC(C)(C)C1=O [Example 64, 4-ricinolamidoethyl-6,6-dimethyl-3-hydro-2H-1,4-diazepin-5-one] | 25 (≈ 53.9 µM) | 200 (≈ 431 µM) | 400 (≈ 863 µM) | – |
| CCCCCCCCCCCCCCC(O)CNCCN1CC[N+](CC(=O)[O-])=CCC(C)C1=O (stereo not drawn) [4-(2-hydroxyhexadecyl)aminoethyl-6-methyl-4-aza-1-azoniacyclooct-8-en-5-one-1-acetate] | 25 (≈ 51.9 µM) | 25 (≈ 51.9 µM) | 100 (≈ 208 µM) | – |
| CCCCCCCCCCCCOCCNCCN1CC[N+](CC(=O)[O-])=C(C)CC1=O [4-dodecoxyaminoethyl-7-methyl-1-azonia-4-azacyclohept-7-en-5-one-1-acetate] | 25 (≈ 56.9 µM) | 25 (≈ 56.9 µM) | 200 (≈ 455 µM) | – |
| CCCCCCC(O)CC=CCCCCCCCC(=O)OC(C)CN1CCC[N+](CC(=O)[O-])=C(C)CC1=O (stereo not drawn) | 25 (≈ 46.6 µM) | 50 (≈ 93.2 µM) | – | MIC (Escherichia coli NIHJ; [5]): 1600 mg/L (≈ 2980 µM) |
| CCCCCCCCc1ccc(OCCOC(C)COC(C)CN2CCN=C(C)CC2=O)cc1 (stereo not drawn) [Example 19] | 25 (≈ 52.7 µM) | 50 (≈ 105 µM) | 400 (≈ 843 µM) | – |

| Compound | MIC [2, 4] [mg/L] | MIC [1, 6] [mg/L] | MIC (Escherichia coli NIHJ; Escherichia coli, 24 h) [mg/L] | other results |
| --- | --- | --- | --- | --- |
| CCCCCCCCCCCCNCCNCCNCCCN1CCCN=C(C)CC1=O [Example 38, 1-dodecylaminoethylaminoethylaminopropyl-4-methyl-3,6,7,8-tetrahydro-1,5-diazocin-2-one] | 25 (≈ 55.3 µM) | 12.5 (≈ 27.7 µM) | 50 (≈ 111 µM) | – |
| CCCCCCCCCCCCCCCCCCCCCC(=O)OCCN1CCN=CCCC1=O [Example 57, 4-behenoyloxyethyl-2,3,6,7-tetrahydro-1,4-diazocin-5-one] | 12.5 (≈ 25.4 µM) | 100 (≈ 203 µM) | 100 (≈ 203 µM) | – |
| CCCCCCCCCCCCCCC(O)CNCCN1CC[N+](CC(=O)[O-])=CCCC1=O (stereo not drawn) [4-(2-hydroxyhexadecyl)aminoethyl-4-aza-1-azoniacyclooct-8-en-5-one-1-acetate] | 6.25 (≈ 13.4 µM) | 12.5 (≈ 26.7 µM) | 100 (≈ 214 µM) | – |
| CCCCCCCCOCCCN1CC[N+](CC(=O)[O-])=CC(C)(C)C1=O [4-oxtoxypropyl-6,6-dimethyl-1-azonia-4-azacyclohept-7-en-5-one-1-acetate] | 50 (≈ 136 µM) | 200 (≈ 543 µM) | – | MIC (Escherichia coli NIHJ; [5]): 800 mg/L (≈ 2170 µM) |
| CCCCCCCCCCCCCCCCCCCCCC(=O)OCCN1CC[N+](CC(=O)[O-])=CCCC1=O [4-behenoyloxyethyl-4-aza-1-azoniacyclooct-8-en-5-one-1-acetate] | 12.5 (≈ 22.7 µM) | 100 (≈ 182 µM) | 200 (≈ 363 µM) | – |
| CCCCCCCCCCC(O)CN1CC[N+](CC(=O)[O-])=C(C)CC1=O (stereo not drawn) [4-(2-hydroxy)dodecyl-7-methyl-1-azonia-4-azacyclohept-7-en-5-one-1-acetate] | 6.25 (≈ 17 µM) | 100 (≈ 271 µM) | 200 (≈ 543 µM) | – |
| CCCCCCCCCc1ccc(OCC(O)CNCCNCCNCCN2CC[N+](CC(=O)[O-])=CC(C)C2=O)cc1 (stereo not drawn) [4-nonylphenoxy(2-hydroxy)propylaminoethylaminoethylaminoethyl-6-methyl-1-azonia-4-azacyclohept-7-en-5-one-1-acetate] | 50 (≈ 84.8 µM) | 200 (≈ 339 µM) | 400 (≈ 678 µM) | – |
| CCCCCCCCCCCCCCCCCCCCC(O)CNCCNCCN1CCCN=C(C)CC1=O (stereo not drawn) [Example 30, 1-(2-hydroxy)docosylaminoethylaminoethyl-4-methyl-3,6,7,8-tetrahydro-1,5-diazocin-2-one] | – | 12.5 (≈ 22.7 µM) | 25 (≈ 45.4 µM) | MIC ([2]; Desulfovibrio desulfuricans, IFO13699, Table 1, azaalkenelactams, heart infusion agar, 37° C., 24 hours, read-out: MIC): 3.12 mg/L (≈ 5.66 µM) |
| CCCCCCCC/C=C\CCCCCCCC(=O)OCCN1CC[N+](CC(=O)[O-])=C(C)CC1=O [4-oleoyloxyethyl-7-methyl-1-azonia-4-azacyclohept-7-en-5-one-1-acetate] | 25 (≈ 50.7 µM) | 200 (≈ 406 µM) | – | MIC (Escherichia coli NIHJ; [5]): 3200 mg/L (≈ 6490 µM) |
| CCCCCCCCCCCCCCNCCN1CC[N+](CC(=O)[O-])=CC(C)C1=O (stereo not drawn) [4-tetradecylaminoethyl-6-methyl-1-azonia-4-azacyclohept-7-en-5-one-1-acetate] | 6.25 (≈ 14.8 µM) | 6.25 (≈ 14.8 µM) | 100 (≈ 236 µM) | – |
| 4-methylbenzylpoly(2 moles)oxypropyleneoxypropyl-6-methyl-4-aza-1-azoniacyclooct-8-en-5-one-1-acetate | – | – | – | MIC (Escherichia coli NIHJ; [7]): 800 mg/L; MIC [1]: 400 mg/L; MIC [2]: 25 mg/L |
| CCCCCCCCCCCC(=O)OCCN1CC[N+](CC(=O)[O-])=C(C)CC1=O [4-lauroyloxyethyl-7-methyl-1-azonia-4-azacyclohept-7-en-5-one-1-acetate] | 25 (≈ 60.9 µM) | 400 (≈ 974 µM) | – | MIC (Escherichia coli NIHJ; [5]): 3200 mg/L (≈ 7790 µM) |
| CCCCCCCCCCCCCCCCN1CCN=C(C)CC1=O [Example 5, 4-hexadecyl-7-methyl-3,6-dihydro-2H-1,4-diazepin-5-one] | 6.25 (≈ 17.8 µM) | 12.5 (≈ 35.7 µM) | – | MIC (Escherichia coli NIHJ; [3]): 3200 mg/L (≈ 9130 µM) |
| 1-nonylphenylpoly(2 moles)oxyethyleneoxyethyl-3,3-dimethyl-1-aza-5-azoniacyclooct-4-en-2-one-5-acetate | – | – | – | MIC (Escherichia coli NIHJ): 400 mg/L; MIC [1]: 100 mg/L; MIC [2]: 50 mg/L |
| CCCCCCCCCCCC(=O)OCCN1CCN=C(C)CC1=O [Example 12, 4-lauroyloxyethyl-7-methyl-3,6-dihydro-2H-1,4-diazepin-5-one] | 12.5 (≈ 35.5 µM) | 100 (≈ 284 µM) | – | MIC (Escherichia coli NIHJ; [3]): 1600 mg/L (≈ 4540 µM) |
| CC1=NCCN(CCNC(=O)CCCCCCCCCCCCCCC(C)C)C(=O)C1 [Example 11, 4-isostearamidoethyl-7-methyl-3,6-dihydro-2H-1,4-diazepin-5-one] | 6.25 (≈ 14.3 µM) | 100 (≈ 230 µM) | – | MIC (Escherichia coli NIHJ; [3]): 1600 mg/L (≈ 3670 µM) |
| 1-behenoyloxypropyl-4-methyl-1-aza-5-azoniacyclooct-4-en-2-one-5-acetate | – | – | – | MIC (Escherichia coli NIHJ; [7]): 3200 mg/L; MIC [1]: 100 mg/L; MIC [2]: 50 mg/L |
| CCCCCCCCCCCCCCCCCCNCCCN1CCCN=C(C)CC1=O [Example 37, 1-octadecylaminopropyl-4-methyl-3,6,7,8-tetrahydro-1,5-diazocin-2-one] | – | – | – | MIC (Escherichia coli NIHJ): 25 mg/L (≈ 55.6 µM); MIC [1]: 6.25 mg/L (≈ 13.9 µM); MIC [2]: 6.25 mg/L (≈ 13.9 µM) |
| 4-behenoyloxypropyl-6-methyl-4aza-1-azoniacyclooct-8-en-5-one-1-acetate | – | – | – | MIC (Escherichia coli NIHJ; [7]): 800 mg/L; MIC [1]: 200 mg/L; MIC [2]: 25 mg/L |
